For 6 compounds, Kd results are on record in patent US20240116892A1, “HETEROCYCLIC AMIDE AND UREA COMPOUNDS AS JAK2 INHIBITORS” (Ajax Therapeutics, Inc., priority 2022, published 2024).

Chain of JAK2 (JH1 domain-catalytic, Y1007F, Y1008F) kinase (O60674 849-1124 Y1007F/Y1008F): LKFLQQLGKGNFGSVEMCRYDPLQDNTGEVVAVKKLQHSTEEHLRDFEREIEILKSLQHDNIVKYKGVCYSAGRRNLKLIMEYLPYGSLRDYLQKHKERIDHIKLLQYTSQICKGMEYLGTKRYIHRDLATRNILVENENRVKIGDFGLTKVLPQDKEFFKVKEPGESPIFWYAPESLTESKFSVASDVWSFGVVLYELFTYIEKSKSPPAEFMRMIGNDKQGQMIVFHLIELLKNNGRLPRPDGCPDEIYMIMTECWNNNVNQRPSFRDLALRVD

The assay addresses JAK2 (JH1 domain-catalytic, Y1007F, Y1008F) kinase (Homo sapiens (Human), UniProt O60674, Y1007F/Y1008F). The assay is described as follows: JAK2 JH1 Domain Binding Assay. Particulars: qPCR readout. In short, it runs like this:
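Competitive binding format: test compound, DNA-tagged JAK2 JH1 (Y1007F/Y1008F; HEK293-expressed NFkB fusion) and ligand-coated magnetic beads incubated 1 h at room temperature. Kinase retained on beads released with 0.5 μmol/L non-biotinylated ligand, then measured by qPCR.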
Regarding `COCc1cc2nc(N3CC[C@@H](N(C)C(=O)Nc4cc(C(F)(F)F)cn(C)c4=O)[C@@H](C)C3)cnc2[nH]1` [Example I-159-b, 1-((3S,4R)-1-(6-(methoxymethyl)-5H-pyrrolo[2,3-b]pyrazin-2-yl)-3-methylpiperidin-4-yl)-1-methyl-3-(1-methyl-2-oxo-5-(trifluoromethyl)-1,2-dihydropyridin-3-yl)urea], the Kd is under 10 nM. In the case of `COc1n[nH]c2ncc(N3CC[C@@H](N(C)C(=O)Nc4cc(C(F)(F)F)cn(C)c4=O)[C@H](F)C3)cc12` [Example I-84-b, 1-((3R,4R)-3-fluoro-1-(3-methoxy-1H-pyrazolo[3,4-b]pyridin-5-yl)piperidin-4-yl)-1-methyl-3-(1-methyl-2-oxo-5-(trifluoromethyl)-1,2-dihydropyridin-3-yl)urea], the equilibrium dissociation constant (Kd) was under 10 nM. Regarding `CC(=O)Nc1ccc(N2CCC(N(C)C(=O)Nc3cc(C)cc(C(F)(F)F)c3)CC2)cn1` [Example I-12, N-(5-(4-(1-methyl-3-(3-methyl-5-(trifluoromethyl)phenyl)ureido)piperidin-1-yl)pyridin-2-yl)acetamide], the Kd is under 10 nM.

Compound `CN(C(=O)Nc1cc(C(F)(F)F)cn(C)c1=O)[C@@H]1CCN(c2cnc3[nH]ncc3c2)C[C@H]1OC(F)F.CN(C(=O)Nc1cc(C(F)(F)F)cn(C)c1=O)[C@H]1CCN(c2cnc3[nH]ncc3c2)C[C@@H]1OC(F)F` (mixture of isomers) [Example I-167-a, 1-((3S,4S)-3-(difluoromethoxy)-1-(1H-pyrazolo[3,4-b]pyridin-5-yl)piperidin-4-yl)-1-methyl-3-(1-methyl-2-oxo-5-(trifluoromethyl)-1,2-dihydropyridin-3-yl)urea and 1-((3R,4R)-3-(difluoromethoxy)-1-(1H-pyrazolo[3,4-b]pyridin-5-yl)piperidin-4-yl)-1-methyl-3-(1-methyl-2-oxo-5-(trifluoromethyl)-1,2-dihydropyridin-3-yl)urea] had a Kd of 50 to 1000 nM. As for `Cc1n[nH]c2ncc(N3CCC(N(C)C(=O)Nc4cc(C(F)(F)F)cn(C)c4=O)C(F)(F)C3)cc12` (single isomer, unassigned) [Example I-36-b, (S)- or (R)-1-(3,3-difluoro-1-(3-methyl-1H-pyrazolo[3,4-b]pyridin-5-yl)piperidin-4-yl)-1-methyl-3-(1-methyl-2-oxo-5-(trifluoromethyl)-1,2-dihydropyridin-3-yl)urea], the equilibrium dissociation constant (Kd) is under 10 nM.

`Cc1cc(NC(=O)CC2CCN(c3cnccn3)CC2)cc(C(F)(F)F)c1` [Example I-1, N-(3-methyl-5-(trifluoromethyl)phenyl)-2-(1-(pyrazin-2-yl)piperidin-4-yl)acetamide] returned an equilibrium dissociation constant (Kd) of 1000 to 5000 nM.
